# According to patent US9828360B2 (Array BioPharma Inc., priority 2012, dated 2017):
# Tests used:
# Experiment in all cases: KinaseProfiler off-target kinase profiling
# Assay type in all cases: biochemical
# Conditions in all cases: 10 μM, ATP near Km
# Flt1 = target: T1, Flt1 (Homo sapiens, UniProt P17948)
# T1 construct: purchased Millipore, Inc. (KinaseProfiler service)
# Method in brief: (§1)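 Compound tested at one concentration, 10 μM, across the complete panel. Replicates: two. ATP: near Km, kinase by kinase. Reported value: averaged percent of control.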
# Rsk2 = target: T2, Rsk2 (Homo sapiens, UniProt P51812)
# T2 construct: purchased Millipore, Inc. (KinaseProfiler service)
# Method in brief: as §1
# TNK2 = target: T3, TNK2 (Homo sapiens, UniProt Q07912)
# T3 construct: purchased Millipore, Inc. (KinaseProfiler service)
# Method in brief: as §1
# NEK7 = target: T4, NEK7 (Homo sapiens, UniProt Q8TDX7)
# T4 construct: purchased Millipore, Inc. (KinaseProfiler service)
# T4 sequence (Q8TDX7 whole entry): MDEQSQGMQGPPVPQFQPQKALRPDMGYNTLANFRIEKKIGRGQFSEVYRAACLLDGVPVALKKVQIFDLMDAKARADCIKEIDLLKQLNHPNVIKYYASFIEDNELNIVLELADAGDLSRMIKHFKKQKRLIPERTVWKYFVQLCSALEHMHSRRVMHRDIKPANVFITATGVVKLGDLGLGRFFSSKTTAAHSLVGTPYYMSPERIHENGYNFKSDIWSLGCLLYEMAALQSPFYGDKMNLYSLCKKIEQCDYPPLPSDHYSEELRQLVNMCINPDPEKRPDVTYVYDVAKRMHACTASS
# Method in brief: as §1
# mTOR = target: T5, mTOR (Homo sapiens, UniProt P42345)
# T5 construct: purchased Millipore, Inc. (KinaseProfiler service)
# Method in brief: as §1
# MKK4_m = target: T6, MKK4_m (Mus musculus, UniProt P47809)
# T6 construct: purchased Millipore, Inc. (KinaseProfiler service)
# Method in brief: as §1
# p70S6K = target: T7, p70S6K (Homo sapiens, UniProt P23443)
# T7 construct: purchased Millipore, Inc. (KinaseProfiler service)
# T7 sequence (P23443 whole entry): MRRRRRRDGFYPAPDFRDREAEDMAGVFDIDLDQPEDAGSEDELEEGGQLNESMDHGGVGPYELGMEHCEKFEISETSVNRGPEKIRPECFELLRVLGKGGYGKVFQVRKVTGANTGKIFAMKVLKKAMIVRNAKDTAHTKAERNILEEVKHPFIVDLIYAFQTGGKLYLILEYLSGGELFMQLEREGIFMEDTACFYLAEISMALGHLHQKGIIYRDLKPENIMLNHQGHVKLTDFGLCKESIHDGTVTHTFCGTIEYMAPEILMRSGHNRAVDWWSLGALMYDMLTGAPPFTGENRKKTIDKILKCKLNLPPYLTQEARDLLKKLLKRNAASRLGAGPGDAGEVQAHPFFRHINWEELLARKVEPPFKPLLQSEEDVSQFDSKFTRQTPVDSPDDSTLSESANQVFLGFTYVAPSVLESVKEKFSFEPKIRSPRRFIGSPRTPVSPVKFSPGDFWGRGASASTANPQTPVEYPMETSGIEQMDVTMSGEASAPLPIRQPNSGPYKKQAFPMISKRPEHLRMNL
# Method in brief: as §1
# Yes = target: T8, Yes (Homo sapiens, UniProt P07947)
# T8 construct: purchased Millipore, Inc. (KinaseProfiler service)
# Method in brief: as §1
# MARK2 = target: T9, MARK2 (Homo sapiens, UniProt Q7KZI7)
# T9 construct: purchased Millipore, Inc. (KinaseProfiler service)
# Method in brief: as §1
# CDK2/cyclinE = target: T10, CDK2/cyclinE (Homo sapiens, UniProt P24941)
# T10 construct: purchased Millipore, Inc. (KinaseProfiler service)
# Method in brief: as §1
# MKK7beta = target: T11, MKK7beta (Homo sapiens, UniProt O14733)
# T11 construct: purchased Millipore, Inc. (KinaseProfiler service)
# T11 sequence (O14733 whole entry): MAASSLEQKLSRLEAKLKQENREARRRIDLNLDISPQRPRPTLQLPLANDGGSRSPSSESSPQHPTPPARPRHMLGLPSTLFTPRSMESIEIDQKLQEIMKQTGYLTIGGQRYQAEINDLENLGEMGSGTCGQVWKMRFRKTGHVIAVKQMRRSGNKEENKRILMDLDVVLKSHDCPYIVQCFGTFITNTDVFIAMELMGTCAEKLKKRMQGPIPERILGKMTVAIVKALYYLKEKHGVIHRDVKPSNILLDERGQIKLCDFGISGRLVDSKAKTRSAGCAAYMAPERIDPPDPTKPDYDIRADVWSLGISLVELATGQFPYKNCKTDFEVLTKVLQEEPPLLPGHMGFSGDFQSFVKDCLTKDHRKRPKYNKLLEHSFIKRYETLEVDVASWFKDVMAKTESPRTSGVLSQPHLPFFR
# Method in brief: as §1
# IR = target: T12, IR (Homo sapiens, UniProt P06213)
# T12 construct: purchased Millipore, Inc. (KinaseProfiler service)
# Method in brief: as §1
# Plk1 = target: T13, Plk1 (Homo sapiens, UniProt P53350)
# T13 construct: purchased Millipore, Inc. (KinaseProfiler service)
# Method in brief: as §1
# SGK2 = target: T14, SGK2 (Homo sapiens, UniProt Q9HBY8)
# T14 construct: purchased Millipore, Inc. (KinaseProfiler service)
# Method in brief: as §1
# GRK6 = target: T15, GRK6 (Homo sapiens, UniProt P43250)
# T15 construct: purchased Millipore, Inc. (KinaseProfiler service)
# Method in brief: as §1
# SGK1 = target: T16, SGK1 (Homo sapiens, UniProt O00141, S422D)
# T16 construct: purchased Millipore, Inc. (KinaseProfiler service)
# Method in brief: as §1
# ERK2 = target: T17, ERK2 (Homo sapiens, UniProt P28482)
# T17 construct: purchased Millipore, Inc. (KinaseProfiler service)
# T17 sequence (P28482 whole entry): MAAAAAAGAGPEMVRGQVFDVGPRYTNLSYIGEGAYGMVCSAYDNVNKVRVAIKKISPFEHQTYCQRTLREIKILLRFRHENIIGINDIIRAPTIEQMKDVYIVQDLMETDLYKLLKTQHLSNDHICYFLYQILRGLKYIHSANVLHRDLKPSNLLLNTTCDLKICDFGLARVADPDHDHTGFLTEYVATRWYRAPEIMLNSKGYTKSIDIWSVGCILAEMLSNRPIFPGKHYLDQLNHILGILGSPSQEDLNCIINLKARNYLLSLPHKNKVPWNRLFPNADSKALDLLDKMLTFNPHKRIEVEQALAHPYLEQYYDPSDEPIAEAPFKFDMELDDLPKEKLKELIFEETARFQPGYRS
# Method in brief: as §1
# EphA8 = target: T18, EphA8 (Homo sapiens, UniProt P29322)
# T18 construct: purchased Millipore, Inc. (KinaseProfiler service)
# Method in brief: as §1
# MAP4K2 = target: T19, MAP4K2 (Homo sapiens, UniProt Q12851)
# T19 construct: purchased Millipore, Inc. (KinaseProfiler service)
# T19 sequence (Q12851 whole entry): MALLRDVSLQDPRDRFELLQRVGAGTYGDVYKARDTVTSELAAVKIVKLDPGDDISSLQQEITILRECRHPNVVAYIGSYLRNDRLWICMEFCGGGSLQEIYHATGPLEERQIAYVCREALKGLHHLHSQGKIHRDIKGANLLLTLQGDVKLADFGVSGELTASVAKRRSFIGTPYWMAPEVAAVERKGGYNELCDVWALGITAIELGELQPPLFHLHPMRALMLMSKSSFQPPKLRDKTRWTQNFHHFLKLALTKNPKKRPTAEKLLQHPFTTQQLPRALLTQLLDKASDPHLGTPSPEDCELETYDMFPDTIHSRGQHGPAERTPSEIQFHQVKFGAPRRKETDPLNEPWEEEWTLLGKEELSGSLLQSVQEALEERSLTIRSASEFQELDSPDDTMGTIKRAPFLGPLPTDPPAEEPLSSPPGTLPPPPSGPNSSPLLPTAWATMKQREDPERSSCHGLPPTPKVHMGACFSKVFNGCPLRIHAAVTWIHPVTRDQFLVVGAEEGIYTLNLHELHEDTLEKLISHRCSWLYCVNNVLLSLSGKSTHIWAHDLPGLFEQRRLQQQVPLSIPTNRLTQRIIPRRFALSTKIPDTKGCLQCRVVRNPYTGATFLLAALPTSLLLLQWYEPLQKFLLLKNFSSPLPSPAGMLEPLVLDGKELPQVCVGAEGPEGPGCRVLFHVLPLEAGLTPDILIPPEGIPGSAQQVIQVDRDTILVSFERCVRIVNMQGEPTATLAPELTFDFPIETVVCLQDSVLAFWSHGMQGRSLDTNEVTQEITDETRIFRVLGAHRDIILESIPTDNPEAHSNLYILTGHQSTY
# Method in brief: as §1
# Syk = target: T20, Syk (Homo sapiens, UniProt P43405)
# T20 construct: purchased Millipore, Inc. (KinaseProfiler service)
# Method in brief: as §1
# JNK1alpha1 = target: T21, JNK1alpha1 (Homo sapiens, UniProt P45983)
# T21 construct: purchased Millipore, Inc. (KinaseProfiler service)
# T21 sequence (P45983 1-384 isoform P45983-2): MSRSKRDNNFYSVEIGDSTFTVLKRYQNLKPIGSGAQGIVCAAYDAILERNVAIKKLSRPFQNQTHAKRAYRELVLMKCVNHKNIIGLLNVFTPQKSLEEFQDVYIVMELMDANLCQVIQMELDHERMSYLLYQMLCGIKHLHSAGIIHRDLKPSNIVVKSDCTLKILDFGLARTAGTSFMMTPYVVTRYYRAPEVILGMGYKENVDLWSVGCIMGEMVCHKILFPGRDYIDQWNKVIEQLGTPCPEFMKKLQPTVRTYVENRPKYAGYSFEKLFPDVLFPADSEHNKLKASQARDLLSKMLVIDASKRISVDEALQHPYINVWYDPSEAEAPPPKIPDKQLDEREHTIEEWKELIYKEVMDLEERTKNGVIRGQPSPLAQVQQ
# Method in brief: as §1
# CAMK1d = target: T22, CAMK1d (Homo sapiens, UniProt Q8IU85)
# T22 construct: purchased Millipore, Inc. (KinaseProfiler service)
# Method in brief: as §1
# ALK4 = target: T23, ALK4 (Homo sapiens, UniProt P36896)
# T23 construct: purchased Millipore, Inc. (KinaseProfiler service)
# Method in brief: as §1
# p38alpha = target: T24, p38alpha (Homo sapiens, UniProt Q16539)
# T24 construct: purchased Millipore, Inc. (KinaseProfiler service)
# Method in brief: as §1
# PAK4 = target: T25, PAK4 (Homo sapiens, UniProt O96013)
# T25 construct: purchased Millipore, Inc. (KinaseProfiler service)
# Method in brief: as §1
# CLK3 = target: T26, CLK3 (Homo sapiens, UniProt P49761)
# T26 construct: purchased Millipore, Inc. (KinaseProfiler service)
# Method in brief: as §1
# MST3 = target: T27, MST3 (Homo sapiens, UniProt Q9Y6E0)
# T27 construct: purchased Millipore, Inc. (KinaseProfiler service)
# Method in brief: as §1
# MELK = target: T28, MELK (Homo sapiens, UniProt Q14680)
# T28 construct: purchased Millipore, Inc. (KinaseProfiler service)
# Method in brief: as §1
# EphA3 = target: T29, EphA3 (Homo sapiens, UniProt P29320)
# T29 construct: purchased Millipore, Inc. (KinaseProfiler service)
# Method in brief: as §1
# PKCiota = target: T30, PKCiota (Homo sapiens, UniProt P41743)
# T30 construct: purchased Millipore, Inc. (KinaseProfiler service)
# Method in brief: as §1
# DYRK2 = target: T31, DYRK2 (Homo sapiens, UniProt Q92630)
# T31 construct: purchased Millipore, Inc. (KinaseProfiler service)
# Method in brief: as §1
# Haspin = target: T32, Haspin (Homo sapiens, UniProt Q8TF76)
# T32 construct: purchased Millipore, Inc. (KinaseProfiler service)
# T32 sequence (Q8TF76 whole entry): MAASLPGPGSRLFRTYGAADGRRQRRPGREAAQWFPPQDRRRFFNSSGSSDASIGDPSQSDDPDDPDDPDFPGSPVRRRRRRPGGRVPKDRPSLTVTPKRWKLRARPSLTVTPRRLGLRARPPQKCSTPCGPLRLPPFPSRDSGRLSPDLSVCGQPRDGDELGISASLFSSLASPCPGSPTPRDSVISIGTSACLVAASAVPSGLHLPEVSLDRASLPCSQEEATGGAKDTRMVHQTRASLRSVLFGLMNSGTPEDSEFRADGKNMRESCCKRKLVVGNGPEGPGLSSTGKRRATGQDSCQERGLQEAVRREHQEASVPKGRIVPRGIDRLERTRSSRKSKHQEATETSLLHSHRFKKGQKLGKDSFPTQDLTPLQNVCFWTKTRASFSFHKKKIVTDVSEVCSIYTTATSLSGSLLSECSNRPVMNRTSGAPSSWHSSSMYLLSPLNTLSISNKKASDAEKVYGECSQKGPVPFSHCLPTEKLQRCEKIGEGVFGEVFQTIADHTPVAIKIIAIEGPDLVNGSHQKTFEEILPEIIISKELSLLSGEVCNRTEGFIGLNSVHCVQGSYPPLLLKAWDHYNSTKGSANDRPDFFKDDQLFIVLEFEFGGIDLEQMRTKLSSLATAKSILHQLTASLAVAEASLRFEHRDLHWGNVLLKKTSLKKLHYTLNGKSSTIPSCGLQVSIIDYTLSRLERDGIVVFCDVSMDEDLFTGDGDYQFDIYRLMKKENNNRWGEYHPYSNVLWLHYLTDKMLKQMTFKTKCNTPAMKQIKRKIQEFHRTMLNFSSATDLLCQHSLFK
# Method in brief: as §1
# MARK1 = target: T33, MARK1 (Homo sapiens, UniProt Q9P0L2)
# T33 construct: purchased Millipore, Inc. (KinaseProfiler service)
# Method in brief: as §1
# AURKA = target: T34, AURKA (Homo sapiens, UniProt O14965)
# T34 construct: purchased Millipore, Inc. (KinaseProfiler service)
# Method in brief: as §1
# HIPK3 = target: T35, HIPK3 (Homo sapiens, UniProt Q9H422)
# T35 construct: purchased Millipore, Inc. (KinaseProfiler service)
# Method in brief: as §1
# KDR = target: T36, KDR (Homo sapiens, UniProt P35968)
# T36 construct: purchased Millipore, Inc. (KinaseProfiler service)
# Method in brief: as §1
# NEK2 = target: T37, NEK2 (Homo sapiens, UniProt P51955)
# T37 construct: purchased Millipore, Inc. (KinaseProfiler service)
# Method in brief: as §1
# CDK9/cyclinT1 = target: T38, CDK9/cyclinT1 (Homo sapiens, UniProt P50750)
# T38 construct: purchased Millipore, Inc. (KinaseProfiler service)
# Method in brief: as §1
# DAPK1 = target: T39, DAPK1 (Homo sapiens, UniProt P53355)
# T39 construct: purchased Millipore, Inc. (KinaseProfiler service)
# Method in brief: as §1
# PKCzeta = target: T40, PKCzeta (Homo sapiens, UniProt Q05513)
# T40 construct: purchased Millipore, Inc. (KinaseProfiler service)
# Method in brief: as §1
# ROCK-II = target: T41, ROCK-II (Homo sapiens, UniProt O75116)
# T41 construct: purchased Millipore, Inc. (KinaseProfiler service)
# T41 sequence (O75116 whole entry): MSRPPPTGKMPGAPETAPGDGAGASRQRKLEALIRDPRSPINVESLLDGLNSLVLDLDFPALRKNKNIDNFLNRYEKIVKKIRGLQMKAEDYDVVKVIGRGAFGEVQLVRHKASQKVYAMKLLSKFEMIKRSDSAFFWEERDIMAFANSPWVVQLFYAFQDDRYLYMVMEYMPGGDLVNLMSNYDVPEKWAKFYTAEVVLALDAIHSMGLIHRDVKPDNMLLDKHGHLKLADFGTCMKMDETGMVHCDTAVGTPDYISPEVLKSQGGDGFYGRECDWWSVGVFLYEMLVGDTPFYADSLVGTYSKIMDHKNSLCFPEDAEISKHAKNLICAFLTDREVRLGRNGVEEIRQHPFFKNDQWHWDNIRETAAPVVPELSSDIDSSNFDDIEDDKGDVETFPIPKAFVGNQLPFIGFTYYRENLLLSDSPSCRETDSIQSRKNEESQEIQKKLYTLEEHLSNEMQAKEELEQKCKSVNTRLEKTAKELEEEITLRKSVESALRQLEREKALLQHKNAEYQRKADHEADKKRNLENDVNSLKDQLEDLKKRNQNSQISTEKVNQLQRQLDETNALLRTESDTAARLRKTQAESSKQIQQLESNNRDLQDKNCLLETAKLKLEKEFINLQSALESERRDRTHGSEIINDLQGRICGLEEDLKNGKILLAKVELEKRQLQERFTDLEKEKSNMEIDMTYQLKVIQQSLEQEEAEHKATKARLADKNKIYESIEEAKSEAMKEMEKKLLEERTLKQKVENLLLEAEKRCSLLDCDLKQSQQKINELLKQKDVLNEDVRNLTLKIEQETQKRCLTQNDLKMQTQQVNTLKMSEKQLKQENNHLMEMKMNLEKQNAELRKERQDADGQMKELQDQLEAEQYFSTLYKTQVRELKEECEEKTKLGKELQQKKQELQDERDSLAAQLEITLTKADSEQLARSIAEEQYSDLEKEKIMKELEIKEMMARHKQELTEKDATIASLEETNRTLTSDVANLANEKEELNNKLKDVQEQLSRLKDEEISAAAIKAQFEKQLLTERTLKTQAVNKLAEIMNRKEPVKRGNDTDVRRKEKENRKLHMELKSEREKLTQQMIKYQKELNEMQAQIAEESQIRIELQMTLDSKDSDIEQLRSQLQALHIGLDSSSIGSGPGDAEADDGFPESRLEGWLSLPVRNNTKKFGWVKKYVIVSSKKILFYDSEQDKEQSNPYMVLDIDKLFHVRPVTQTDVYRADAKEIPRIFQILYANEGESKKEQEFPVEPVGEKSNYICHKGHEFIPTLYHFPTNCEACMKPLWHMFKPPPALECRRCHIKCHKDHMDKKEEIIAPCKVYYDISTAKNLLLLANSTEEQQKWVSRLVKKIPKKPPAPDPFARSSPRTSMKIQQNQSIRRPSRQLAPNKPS
# Method in brief: as §1
structure (smiles),measurement,setting,value
"COCCN1C[C@@H](NC(=O)Nc2sc(C(C)C)nc2-c2ccccc2)[C@H](c2ccccc2)C1 [Example 48, 1-(2-isopropyl-4-phenylthiazol-5-yl)-3-((3S,4R)-1-(2-methoxyethyl)-4-phenylpyrrolidin-3-yl)urea]",Avg POC,Flt1,96.5% of control
same,Avg POC,Rsk2,134% of control
same,Avg POC,TNK2,99.5% of control
same,Avg POC,NEK7,107% of control
same,Avg POC,mTOR,99% of control
same,Avg POC,MKK4_m,122% of control
same,Avg POC,p70S6K,107.5% of control
same,Avg POC,Yes,97.5% of control
same,Avg POC,MARK2,93% of control
same,Avg POC,CDK2/cyclinE,113% of control
same,Avg POC,MKK7beta,98% of control
same,Avg POC,IR,102% of control
same,Avg POC,Plk1,93% of control
same,Avg POC,SGK2,121.5% of control
same,Avg POC,GRK6,101% of control
same,Avg POC,SGK1,125% of control
same,Avg POC,ERK2,101% of control
same,Avg POC,EphA8,122.5% of control
same,Avg POC,MAP4K2,110.5% of control
same,Avg POC,Syk,86.5% of control
same,Avg POC,JNK1alpha1,106.5% of control
same,Avg POC,CAMK1d,105% of control
same,Avg POC,ALK4,88.5% of control
same,Avg POC,p38alpha,108% of control
same,Avg POC,PAK4,134.5% of control
same,Avg POC,CLK3,101.5% of control
same,Avg POC,MST3,97% of control
same,Avg POC,MELK,89% of control
same,Avg POC,EphA3,112% of control
same,Avg POC,PKCiota,120% of control
same,Avg POC,DYRK2,103.5% of control
same,Avg POC,Haspin,117% of control
same,Avg POC,MARK1,113% of control
same,Avg POC,AURKA,133% of control
same,Avg POC,HIPK3,82% of control
same,Avg POC,KDR,104% of control
same,Avg POC,NEK2,112% of control
same,Avg POC,CDK9/cyclinT1,111.5% of control
same,Avg POC,DAPK1,114.5% of control
same,Avg POC,PKCzeta,108% of control
same,Avg POC,ROCK-II,104.5% of control
